The source of these data is patent US12077503B2, “Substituted cyclic amides and their use as herbicides” (FMC CORPORATION, priority 2015, dated 2024).

Read-outs that look alike come from different tables or passages of the source.

What all share (format): in vivo
The subject of assay [1] is pigweed (Amaranthus retroflexus). As to the kind of experiment: Test A preemergence. The following applies: Amaranthus retroflexus, pre-emergence, 240 h; for pest or weed control at 125 g/ha: 125 g ai/ha, visual rating after approx. 10 d, 0 to 100 scale where 0 is no effect and 100 is complete control; for pest or weed control at 500 g/ha: 500 g ai/ha.
Assay [2] deals with ryegrass, Italian (Italian ryegrass, Lolium multiflorum). As to the kind of experiment: Test A preemergence. The note with it: Lolium multiflorum, pre-emergence, 240 h; for pest or weed control at 125 g/ha: 125 g ai/ha, visual rating after approx. 10 d, 0 to 100 scale where 0 is no effect and 100 is complete control; for pest or weed control at 500 g/ha: 500 g ai/ha. A digest of the protocol: (§1)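 Ratings of 0 (no effect) to 100 (complete control) come from visual comparison with untreated controls roughly 10 d after treatment. Test chemicals, formulated in a non-phytotoxic solvent mixture with surfactant, were applied either as a preemergence directed soil spray on seeded soil or postemergence to one- to two-leaf plants 2 to 10 cm tall.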

In assay [3] the test system is barnyardgrass (Echinochloa crus-galli). The assay can be described thus: Test A preemergence. The note with it: Echinochloa crus-galli, pre-emergence, 240 h; for pest or weed control at 125 g/ha: 125 g ai/ha, visual rating after approx. 10 d, 0 to 100 scale where 0 is no effect and 100 is complete control; for pest or weed control at 500 g/ha: 500 g ai/ha. The essentials:
as §1

Assay [4] deals with Kochia (Kochia scoparia). The assay can be described thus: Test A preemergence. The following applies: Bassia scoparia, pre-emergence, 240 h; for pest or weed control at 125 g/ha: 125 g ai/ha, visual rating after approx. 10 d, 0 to 100 scale where 0 is no effect and 100 is complete control; for pest or weed control at 500 g/ha: 500 g ai/ha. A digest of the protocol: as §1
In assay [5] the test system is ragweed (common ragweed, Ambrosia elatior). As to the kind of experiment: Test A preemergence. The following applies: Ambrosia artemisiifolia, pre-emergence, 240 h; for pest or weed control at 125 g/ha: 125 g ai/ha, visual rating after approx. 10 d, 0 to 100 scale where 0 is no effect and 100 is complete control; for pest or weed control at 500 g/ha: 500 g ai/ha. A digest of the protocol: as §1

Assay [6] concerns giant foxtail (Setaria faberii). As to the kind of experiment: Test A preemergence. The following applies: Setaria faberi, pre-emergence, 240 h; for pest or weed control at 125 g/ha: 125 g ai/ha, visual rating after approx. 10 d, 0 to 100 scale where 0 is no effect and 100 is complete control; for pest or weed control at 500 g/ha: 500 g ai/ha. The essentials: as §1
Assay [7] deals with ducksalad (Heteranthera limosa). As to the kind of experiment: Test B flooded paddy test. The note with it: Heteranthera limosa, Flood, 250 g ai/ha; scale of 0 to 100 where 0 is no effect and 100 is complete control; read-out: Ducksalad plant response rating. The essentials:
(§2)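 Response scored visually against untreated controls, 0 = no effect and 100 = complete control, 13–15 d after treatment in the greenhouse. Compounds added to paddy water held 3 cm above soil surface. Treatment given at 2-leaf stage.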

Assay [8] relates to barnyardgrass (Echinochloa crus-galli). The assay can be described thus: Test B flooded paddy test. The note with it: Echinochloa crus-galli, Flood, 250 g ai/ha; scale of 0 to 100 where 0 is no effect and 100 is complete control; read-out: Barnyardgrass plant response rating. The essentials: as §2
Assay [9] concerns rice (Oryra sativa). As to the kind of experiment: Test B flooded paddy test. The following applies: Oryza sativa, Flood, 250 g ai/ha; scale of 0 to 100 where 0 is no effect and 100 is complete control; read-out: Rice plant response rating. A digest of the protocol:
as §2

Assay [10] concerns sedge, umbrella (small-flower umbrella sedge, Cyperus difformis). As to the kind of experiment: Test B flooded paddy test. The following applies: Cyperus difformis, Flood, 250 g ai/ha; scale of 0 to 100 where 0 is no effect and 100 is complete control; read-out: Sedge, Umbrella plant response rating. A digest of the protocol: as §2
The test system of assay [11] is pigweed (Amaranthus retroflexus). The assay can be described thus: Test A postemergence. The note with it: Amaranthus retroflexus, post-emergence, 240 h, 125 g ai/ha, postemergence; visual injury after approximately 10 d; 0 to 100 scale (0 no effect, 100 complete control); read-out: Plant response rating, Pigweed. The essentials: as §1
Assay [12] deals with wheat (Triticum aestivum). The assay can be described thus: Test A postemergence. The note with it: Triticum aestivum, post-emergence, 240 h, 125 g ai/ha, postemergence; visual injury after approximately 10 d; 0 to 100 scale (0 no effect, 100 complete control); read-out: Plant response rating, Wheat. The essentials:
as §1

The subject of assay [13] is Kochia (Kochia scoparia). The assay can be described thus: Test A postemergence. The following applies: Bassia scoparia, post-emergence, 240 h, 125 g ai/ha, postemergence; visual injury after approximately 10 d; 0 to 100 scale (0 no effect, 100 complete control); read-out: Plant response rating, Kochia. A digest of the protocol:
as §1

Assay [14] relates to giant foxtail (Setaria faberii). As to the kind of experiment: Test A postemergence. The following applies: Setaria faberi, post-emergence, 240 h, 125 g ai/ha, postemergence; visual injury after approximately 10 d; 0 to 100 scale (0 no effect, 100 complete control); read-out: Plant response rating, Foxtail, Giant. A digest of the protocol:
as §1

Assay [15] deals with Galium (catchweed bedstraw, Galium aparine). As to the kind of experiment: Test A postemergence. The following applies: Galium, post-emergence, 240 h, 125 g ai/ha, postemergence; visual injury after approximately 10 d; 0 to 100 scale (0 no effect, 100 complete control); read-out: Plant response rating, Galium. The essentials: as §1
The mark [16] stands for this setting: preemergence, read-out: Plant response rating, Pigweed.
Where [17] appears, read: preemergence, 0 to 100 scale, 0 = no effect, 100 = complete control, read-out: Plant response rating, Pigweed.
Setting [18] is: preemergence, read-out: Plant response rating, Ryegrass, Italian.
The mark [19] stands for this setting: preemergence, 0 to 100 scale, 0 = no effect, 100 = complete control, read-out: Plant response rating, Ryegrass, Italian.
Setting [20] is: preemergence, read-out: Plant response rating, Barnyardgrass.
[21] abbreviates: preemergence, 0 to 100 scale, 0 = no effect, 100 = complete control, read-out: Plant response rating, Barnyardgrass.
The mark [22] stands for this setting: preemergence, read-out: Plant response rating, Kochia.
The mark [23] stands for this setting: preemergence, 0 to 100 scale, 0 = no effect, 100 = complete control, read-out: Plant response rating, Kochia.
The mark [24] stands for this setting: preemergence, read-out: Plant response rating, Ragweed.
Setting [25] is: preemergence, 0 to 100 scale, 0 = no effect, 100 = complete control, read-out: Plant response rating, Ragweed.
Where [26] appears, read: preemergence, read-out: Plant response rating, Foxtail, Giant.
Setting [27] is: preemergence, 0 to 100 scale, 0 = no effect, 100 = complete control, read-out: Plant response rating, Foxtail, Giant.

Regarding `CN1C[C@H](c2cc(F)cc(F)c2)[C@@H](C(=O)Nc2ccc(F)cc2C(F)(F)F)C1=O` [Compound 758], the pest or weed control at 125 g/ha in assay [1] (setting [16]) is 0%; in assay [2] (setting [18]), 30%; in assay [3] (setting [20]) it was 100%; in [4] (setting [22]), 0%; in [5] (setting [24]), 0%; in assay [6] (setting [26]), 100%. In addition, the pest or weed control at 125 g/ha in assay [11] stood at 0%; in assay [13] it was 0%; in assay [14], 80%; in assay [15], 40%. In addition, the pest or weed control at 500 g/ha in [1] (setting [17]) was determined as 20%; in assay [2] (setting [19]) it was 70%; in [3] (setting [21]), 100%; in [4] (setting [23]), 60%; in [5] (setting [25]), 0%; in assay [6] (setting [27]), 100%. Also, the pest or weed control at 250 g/ha in assay [7] came to 100%; in assay [8], 45%; in [9], 0%; in assay [10], 0%. In addition, the plant injury at 125 g/ha in assay [12] came to 0%.

For the compound `O=C1NC[C@H](c2ccc(OC(F)F)cc2)[C@H]1C(=O)Nc1ccccc1F` [Compound 778], the pest or weed control at 125 g/ha in assay [1] (setting [16]) was determined as 30%; in assay [2] (setting [18]) it was 0%; in assay [3] (setting [20]), 70%; in assay [4] (setting [22]), 80%; in assay [5] (setting [24]) it was 40%; in assay [6] (setting [26]), 90%. The pest or weed control at 125 g/ha in [11] was determined as 10%; in [13], 60%; in assay [14] it was 70%; in [15], 60%. The pest or weed control at 500 g/ha came out at 80% in [1] (Preemergence, visual injury vs untreated controls after approximately 10 d, read-out: Pigweed plant response rating (0 to 100 scale where 0 is no effect and 100 is complete control)); 20% in assay [2] (Preemergence, visual injury vs untreated controls after approximately 10 d, read-out: Ryegrass, Italian plant response rating (0 to 100 scale where 0 is no effect and 100 is complete control)); 90% in assay [3] (Preemergence, visual injury vs untreated controls after approximately 10 d, read-out: Barnyardgrass plant response rating (0 to 100 scale where 0 is no effect and 100 is complete control)); 80% in [4] (Preemergence, visual injury vs untreated controls after approximately 10 d, read-out: Kochia plant response rating (0 to 100 scale where 0 is no effect and 100 is complete control)); 60% in assay [5] (Preemergence, visual injury vs untreated controls after approximately 10 d, read-out: Ragweed plant response rating (0 to 100 scale where 0 is no effect and 100 is complete control)); 90% in assay [6] (Preemergence, visual injury vs untreated controls after approximately 10 d, read-out: Foxtail, Giant plant response rating (0 to 100 scale where 0 is no effect and 100 is complete control)). Further, the pest or weed control at 250 g/ha in [7] came to 100%; in assay [8] it was 0%; in assay [9], 0%; in assay [10], 0%. For the same compound, in [12], the plant injury at 125 g/ha was determined as 0%.

Turning to `CN1C[C@H](c2ccc(C(F)(F)F)cc2)[C@@H](C(=O)Nc2ccccc2C2CC2)C1=O` [Compound 747], the pest or weed control at 125 g/ha in [1] (setting [16]) amounted to 50%; in [2] (setting [18]) it was 0%; in [3] (setting [20]), 0%; in assay [4] (setting [22]), 60%; in [5] (setting [24]), 20%; in assay [6] (setting [26]) it was 90%. Moreover, the pest or weed control at 125 g/ha stood at 30% in assay [11], 20% in [13], 70% in [14] and 60% in assay [15]. Also, the pest or weed control at 500 g/ha in assay [1] (setting [17]) worked out at 50%; in assay [2] (setting [19]) it was 60%; in assay [3] (setting [21]) it was 70%; in assay [4] (setting [23]) it was 80%; in [5] (setting [25]), 0%; in assay [6] (setting [27]), 90%. In addition, the pest or weed control at 250 g/ha in assay [7] was 90%; in [8] it was 0%; in assay [9] it was 15%; in assay [10], 0%. The plant injury at 125 g/ha in assay [12] was 0%.
